Measurements reported in patent US20240408170A1, “COMPOSITION FOR DECOMPOSITION OF TRYPSIN OR TMPRSS2” (Riken, priority 2021, published 2024).

Legend:
Citrobacter rodentium = experiment: Vaccine administration experiment (peracetic acid-inactivated C. rodentium) followed by C. rodentium infection; format: in vivo, mouse; conditions: with 2-mix
Procedure: For a colony-forming unit (CFU) assay, cecal patches or cecal luminal contents were collected, and after homogenization with PBS, serially diluted homogenates were plated on LB agar plates. CFU was counted after overnight culture at 37° C. under aerobic conditions.
For the ex vivo evaluation of C. rodentium-specific IgA, the cecal contents were resuspended in a 5× (w/v) LB medium and centrifuged. The supernatant was filtered through a sterilization filter unit with a PVDF film having a pore size of 0.22 μm, and then mixed with an equal amount of a C. rodentium culture solution cultured overnight in vitro. This mixture was gently shaken at room temperature and incubated for 1 hour to examine the aggregation effect with a confocal microscope (Leica TCS SP8). Alternatively, after the incubation, the mixture was centrifuged and washed once with PBS. Thereafter, the bacterial cell pellet was dissolved in a 1% SDS solution (diluted with a 50 mM Tris-HCl buffer solution to which 5 mM EDTA was added). The lysate was stained by western blot with a goat anti-mouse IgA a chain antibody (HRP) (ab97235) to evaluate the relative amount of C. rodentium-binding (C. rodentium-specific) IgA in the faecal contents.
For a vaccine administration experiment, 200 μL of 2-mix (B. uniformis and P. merdae)+P. clara (WT), or 2-mix+P. clara (Δ00502) was preliminarily administered to GF mice. After 4 days, C. rodentium (10^10 cells/mouse) inactivated with peracetic acid was orally administered to the mice once a week for 3 weeks. After 3 weeks of immunization, the mice were infected with C. rodentium (150 μL/mouse) cultured overnight by oral administration, and euthanized on day 14.
The C. rodentium inactivated by peracetic acid was produced as follows. C. rodentium cultured overnight was recovered by centrifugation (16,000×g, 10 minutes) and resuspended in sterilized PBS at a density of 10^10 cells per 1 mL. Peracetic acid (240990, Sigma-Aldrich) was added such that a final concentration was 0.4%, and incubation was performed at room temperature for 1 hour. […]

IgA heavy chain = experiment: Ex vivo incubation of mouse faeces at 37° C. for 48 hours, western blot; conditions: faeces of GF mice inoculated together with 2-mix, 37° C. 48 hours
Procedure: (§1) Mouse faecal samples were suspended and diluted 50-fold with phosphate buffered saline (PBS) to which a protease inhibitor cocktail (Roche) was added. Subsequently, the suspended sample was centrifuged at 15,000×g for 10 minutes at 4° C., and the supernatant was subjected to western blot. Mouse pancreatic tissue was rapidly frozen in liquid nitrogen. Proteins were extracted by TRIzol Reagent (Thermo Fisher Scientific K.K.), and the final protein concentration was adjusted to 4 μg/μL. For SDS-PAGE and blotting, Novex (registered trademark) NuPAGE (registered trademark) SDS-PAGE Gel system (Thermo Fisher Scientific K.K.) and iBlotTM 2 Dry Blotting System (Thermo Fisher Scientific K.K.) were used according to the manufacturer's instructions. The antibodies used are as follows. A rabbit anti-mouse PRSS2 antibody (Cosmo Bio Co., Ltd.), a rabbit anti-mouse HSP90 antibody (#4877, Cell Signaling Technology, Inc.), a rabbit anti-human PRSS2 antibody (LS-B15726, LSBio), a rabbit anti-human PRSS1 antibody (LS-331381, LSBio), a rabbit anti-mouse TMPRSS2 antibody (LS-C373022, LSBio, against the sequence of the protease domain), a rabbit anti-6-His antibody ([…]-[…], Bethyl Laboratories, Inc.), a goat anti-mouse IgA a chain antibody (HRP) (ab97235, Abcam plc.), a rat anti-mouse κ chain antibody (HRP) (ab99632, Abcam plc.), a rabbit anti-mouse CELA3b antibody (OACD03205, Aviva Systems Biology Corporation), an anti-rabbit IgG antibody (HRP) (#7074, Cell Signaling Technology, Inc.), and a rabbit anti-mouse Reg3 antibody (51153-[…], Sino Biological, Inc.).

trypsin (PRSS2) = target: T1, trypsin (PRSS2) (Mus musculus, UniProt P07146); experiment: as above; conditions: faeces of GF mice inoculated together with 2-mix, 37° C. 48 hours
T1 construct: the anionic trypsin protease was abundantly present in the cecal contents and the faeces; from tissue; host or cells: faeces and cecal contents of germ-free / gnotobiotic mice
T1 sequence (P07146 24-246): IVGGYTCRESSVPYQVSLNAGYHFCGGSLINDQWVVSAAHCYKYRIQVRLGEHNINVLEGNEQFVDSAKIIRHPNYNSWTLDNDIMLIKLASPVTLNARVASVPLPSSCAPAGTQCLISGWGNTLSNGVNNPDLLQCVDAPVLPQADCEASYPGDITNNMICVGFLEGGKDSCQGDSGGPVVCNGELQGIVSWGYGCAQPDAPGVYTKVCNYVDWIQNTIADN
Procedure: as §1

Paraprevotella clara [JCM 14859]
body weight after infection with C. rodentium (Citrobacter rodentium; orally vaccinated mice): body weight loss was reduced | C. rodentium-specific IgA in cecal luminal contents (Citrobacter rodentium; western blot): significantly high amount of C. rodentium-specific IgA | total IgA in cecal luminal contents (Citrobacter rodentium; western blot): significantly high total IgA amount | IgA heavy chain in faeces (IgA heavy chain): remained | trypsin in faeces (trypsin (PRSS2)): reduced
